Reference: patent publication US9717745B2, “Pharmaceutical compositions and their use for treatment of cancer and autoimmune diseases” (ZHEJIANG DTRM BIOPHARMA CO. LTD., priority 2015, dated 2017)
Like-named read-outs stand apart in the source and are kept apart here. Marks after values point to notes of the source that are not given here.

Key:
WSU-DLCL2 tumor cells [1] = conditions: oral gavage to mice, 480 mg/kg/day, Knutson et al. 2014, cited from earlier work
[2] = Collagen-induced arthritis (CIA) model in male DBA/1 mice; format: in vivo; set-up: Clinical Score (Mean) / Pathological score: Inflammatory cell infiltration / Pathological score: Pannus growth / Pathological score: Cartilage injury / Pathological score: Bone resorption / Pathological score: Total: scale not given here; conditions: for Clinical score of CIA mice model (in words): FIG. 15; for Clinical Score (Mean): Dexamethasone 0.2 mg/kg
Procedure: Collagen-Induced Arthritis (CIA) Model:
The combination of Compounds 3 and 12 was evaluated in collagen induced arthritis (CIA) mouse model in Male DBA/1 mice. The animals were divided into 8 groups, including a normal, a vehicle, […] treatment groups: All animals (except the normal group) were immunized with 200 μg of bovine collagen (type II) on day 0 and day 21. Seven days (day 28) after boosting immunization, animals started to show symptoms of disease with an average clinical score around 1. […] The treatments were given orally for 2 consecutive weeks. Body weight and clinical score were monitored through the study (recorded three times a week started after second immunization). At the end of the study, animals were euthanized and both hind paws were collected for histopathology analysis.

[3] = Adjuvant-induced arthritis (AA/AIA) model in female Lewis rats; format: in vivo; conditions: for Paw volume of AA rats model (in words): FIG. 13; for Paw volume (Mean): 11 (3 mg/kg) BID positive control, oral from day 13
Procedure: Adjuvant-Induced Arthritis AA Model:
The combination of Compounds 3 and 14 was evaluated in adjuvant-induced arthritis (AA) model in female Lewis rats. All rats except the normal group were immunized with complete Freund's adjuvant (CFA) subcutaneously at the left hind paw to induce arthritis at day 0. At 6 days post immunization, some rats started to display clinical symptoms of arthritis, e.g. erythema and swelling. […] The treatments were given orally for 3 consecutive weeks. The body weight, paw volume and clinical score were monitored every other day after day 13 throughout the course of the study. At the terminal point, right hind paws were collected for histopathology analysis with H.E. staining.

WSU-DLCL2 tumor cells [4] = assay: Inhibition of tumor growth in vivo, resistant WSU-DLCL2 xenograft SCID mouse model; set-up: species or system mice; conditions: FIG. 8
Procedure: (§1) Inhibition Study of Tumor Growth In Vivo:
(§2) SCID mice or nude mice (weighing about 18 g at the beginning of the experiment) were randomly divided into groups by the software in order to achieve close average weights between groups and control the bias within the allowable range. The mice were injected BTK cell lines (TMD-8, WSU-DLCL2 and DoHH-2) for tumor formation. Inhibitors were administered orally once or twice a day, a total of 14 days, 21 days or 28 days. Body weights and tumor volume were recorded.
(§3) Xenograft Tumor Models Inoculated with TMD-8, or DoHH2, or WSU-DLCL2 Tumor Cell Lines:
(§4) TMD-8 is a sensitive human diffuse large B-cell lymphoma cell line, and DoHH2 is a more difficult to treat human follicular lymphoma cell line, while WSU-DLCL2 is a multi-drug resistant (MDR) human non-Hodgkin's lymphoma cell line.
The TMD-8, DoHH2, WSU-DLCL2 tumor cells were maintained in vitro as a suspension culture in RPMI-1640 medium supplemented with 10% heat inactivated fetal calf serum at 37° C. in an atmosphere of 5% CO2 in air. The tumor cells were routinely subcultured twice weekly. The cells growing in an exponential growth phase were harvested and counted for tumor inoculation. […] Animal body weight and tumor volume were measured every 2- or 3-days throughout the treatment.

TMD-8 cell line = assay: Inhibition assay of tumor cell activity (cell viability), TMD-8; format: cell-based, human; conditions: 48 hours incubation
Procedure: Inhibition Assay of Tumor Cell Activity:
Tumor cells (TMD-8, DoHH2 and WSU-DLCL2) were transferred and attached to 96-well plates. After one night, blank buffer and selected concentrations (0.01 nM-100 μM) of the test compound solution were added. After 48 hours incubation, CellTiter-Go was added to lyse the cells. Recording luminescent signal and calculate the percent inhibition of cell viability.

[5] = Collagen-induced arthritis (CIA) model in male DBA/1 mice; format: in vivo; set-up: scale not given here; conditions: CIA study, 14 alone, 0.15 mg/kg QD, Mean ± SEM
TMD-8 tumor cells = assay: Inhibition of tumor growth in vivo, TMD-8 lymphoma xenograft SCID mouse model; conditions: TMD-8 mice model, oral
Procedure: as §1, §2, §3
as §4, with “line. Drug combination therapies provide better efficacies in all three tumor models than single targeted agent alone.” for “line.”
The TMD-8, DoHH2, WSU-DLCL2 tumor cells were maintained in vitro as a suspension culture in RPMI-1640 medium supplemented with 10% heat inactivated fetal calf serum at 37° C. in an atmosphere of 5% CO2 in air. The tumor cells were routinely subcultured twice weekly. The cells growing in an exponential growth phase were harvested and counted for tumor inoculation. Each mouse was inoculated subcutaneously at the right flank with the tumor cells (10×10^6) in 0.2 ml of PBS with Matrigel (1:1) for tumor development. The treatments were started after the average tumor size reached approximately 100-200 mm^3. Each group consisted of 6-10 tumor-bearing mice. The testing article (vehicle, compound or combination) was orally administrated to the mice according to the predetermined doses for 14-days or 21-days. Animal body weight and tumor volume were measured every 2- or 3-days throughout the treatment.

[6] = AA study, 11, 3 mg/kg, Mean ± SEM
[7] = CIA study, Left hind paw, Dexamethasone 0.2 mg/kg QD, Mean ± SEM
[8] = CIA study, Right hind paw, Dexamethasone 0.2 mg/kg QD, Mean ± SEM

CCN(c1cc(-c2ccc(CN3CCOCC3)cc2)cc(C(=O)NCc2c(C)cc(C)[nH]c2=O)c1C)C1CCOCC1 [EPZ-6438]
Tumor growth inhibition in WSU-DLCL tumor model (in words) (WSU-DLCL2 tumor cells [1]): achieved a similar effect | Tumor growth inhibition in WSU-DLCL tumor model (in words) (WSU-DLCL2 tumor cells [1]; listed as EZ-6438): inhibited tumor growth

C=CC(=O)N1CC[C@@H](n2nc(-c3ccc(Oc4c(F)c(F)cc(F)c4F)cc3F)c3c(N)ncnc32)C1 [Compound 3, 1-((R)-3-(4-amino-3-(2-fluoro-4-(2,3,5,6-tetrafluorophenoxy)phenyl)-1H-pyrazolo[3,4-d]pyrimidin-1-yl)pyrrolidin-1-yl)prop-2-en-1-one]
Clinical score of CIA mice model (in words) [2]: treatment effects are absent | Paw volume of AA rats model (in words) [3]: treatment effects are absent | Efficacy in WSU-DLCL2 non-Hodgkin's lymphoma mice model (in words) (WSU-DLCL2 tumor cells [4]): in line with the efficacy of Ibrutinib

CN(Cc1cnc2nc(N)nc(N)c2n1)c1ccc(C(=O)N[C@@H](CCC(=O)O)C(=O)O)cc1 [Compound 18, Methotrexate]
Inhibition of individual compound on TMD-8 cell line (Inh %) AVG (TMD-8 cell line; 0.01 uM): −8.45% | Inhibition of individual compound on TMD-8 cell line (Inh %) AVG (TMD-8 cell line; 0.1 uM): 32.04% | Inhibition of individual compound on TMD-8 cell line (Inh %) AVG (TMD-8 cell line; 1 uM): 39.55%

C[C@@H]1CCN(C(=O)CC#N)C[C@@H]1N(C)c1ncnc2[nH]ccc12 [Compound 11, Tofactinib]
Inhibition of individual compound on TMD-8 cell line (Inh %) AVG (TMD-8 cell line; 0.01 uM): 6.02% | Inhibition of individual compound on TMD-8 cell line (Inh %) AVG (TMD-8 cell line; 0.1 uM): 1.31% | Inhibition of individual compound on TMD-8 cell line (Inh %) AVG (TMD-8 cell line; 1 uM): 6.66% | Pathological score: Bone resorption [3, 6]: 0.5 ± 0.22 | Pathological score: Cartilage injury [3, 6]: 0.2 ± 0.20 | Pathological score: Inflammatory cell infiltration [3, 6]: 1.9 ± 0.18 | Pathological score: Pannus growth [3, 6]: 0.4 ± 0.22 | Pathological score: Total [3, 6]: 3.0 ± 0.73 | Paw volume (Mean) ([3]; Day 0): 1.00 mL | Paw volume (Mean) ([3]; Day 17): 1.54*** mL | Paw volume (Mean) ([3]; Day 26): 1.37*** mL | Paw volume (Mean) ([3]; Day 28): 1.33*** mL | Paw volume (Mean) ([3]; Day 31): 1.23*** mL | Paw volume (Mean) ([3]; Day 33): 1.23*** mL

CO[C@H]1C[C@@H]2CC[C@@H](C)[C@@](O)(O2)C(=O)C(=O)N2CCCC[C@H]2C(=O)O[C@H]([C@H](C)C[C@@H]2CC[C@@H](OCCO)[C@H](OC)C2)CC(=O)[C@H](C)/C=C(\C)[C@@H](O)[C@@H](OC)C(=O)[C@H](C)C[C@H](C)/C=C/C=C/C=C/1C [Compound 14, Everolimus]
Pathological score: Bone resorption ([5]; Left hind paw): 1.80 ± 0.61 | Pathological score: Bone resorption ([5]; Right hind paw): 2.00 ± 0.67 | Clinical score of CIA mice model (in words) [2]: treatment effects are absent | Pathological score: Bone resorption ([3]; AA study, 14 alone, 0.5 mg/kg, Mean ± SEM): 3.5 ± 0.17 | Paw volume of AA rats model (in words) [3]: treatment effects are absent | Days of treatment to tumor disappearance / complete tumor regression (TMD-8 tumor cells): 15 days | Tumor disappearance (in words) (TMD-8 tumor cells): complete disappearance of tumor grafts | Tumor rebound after treatment was stopped (TMD-8 tumor cells): tumor rebounded | Tumor rebound after treatment was stopped (TMD-8 tumor cells; listed as Everolimus): quickly rebounded

C[C@@H]1C[C@H]2[C@@H]3CCC4=CC(=O)C=C[C@]4(C)[C@@]3(F)[C@@H](O)C[C@]2(C)[C@@]1(O)C(=O)CO [Dexamethasone]
Pathological score: Total ([2]; CIA study, Dexamethasone 0.2 mg/kg QD, Mean ± SEM): 0.00 ± 0.00 | Pathological score: Bone resorption [2, 7]: 0.00 ± 0.00 | Pathological score: Cartilage injury [2, 7]: 0.00 ± 0.00 | Pathological score: Inflammatory cell infiltration [2, 7]: 0.00 ± 0.00 | Pathological score: Pannus growth [2, 7]: 0.00 ± 0.00 | Pathological score: Bone resorption [2, 8]: 0.00 ± 0.00 | Pathological score: Cartilage injury [2, 8]: 0.00 ± 0.00 | Pathological score: Inflammatory cell infiltration [2, 8]: 0.00 ± 0.00 | Pathological score: Pannus growth [2, 8]: 0.00 ± 0.00 | Clinical Score (Mean) ([2]; CIA study, day 21 after first immunization): 0.00 | Clinical Score (Mean) ([2]; CIA study, day 32): 0.60*** | Clinical Score (Mean) ([2]; CIA study, day 39): 0.40*** | Clinical Score (Mean) ([2]; CIA study, day 42): 0.20***
